In paper PMC3793977, “High-Throughput Screening (HTS) and Hit Validation to Identify Small Molecule Inhibitors with Activity against NS3/4A proteases from Multiple Hepatitis C Virus Genotypes” (PLoS ONE, 2013):
“Also recorded” adds a separate entry of the source. Blank lines part the entries; values can stand above or below the molecule they belong to.

Experiments:
[1] = target: T1, full-length NS3/4A (Hepatitis C virus genotype 1b, UniProt Q9WMX2); experiment: SPR binding assay (dissociation equilibrium constant KD); conditions: 0–200 µM compound, single referenced with blank (ethanolamine)
T1 construct: wild-type HCV NS3 (HCV polyprotein residues 1027–1657); His-tag (N); made in house
T1 sequence (Q9WMX2 1658-1711): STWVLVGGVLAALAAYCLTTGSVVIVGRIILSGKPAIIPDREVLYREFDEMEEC
T1 sequence (Q9WMX2 1027-1657): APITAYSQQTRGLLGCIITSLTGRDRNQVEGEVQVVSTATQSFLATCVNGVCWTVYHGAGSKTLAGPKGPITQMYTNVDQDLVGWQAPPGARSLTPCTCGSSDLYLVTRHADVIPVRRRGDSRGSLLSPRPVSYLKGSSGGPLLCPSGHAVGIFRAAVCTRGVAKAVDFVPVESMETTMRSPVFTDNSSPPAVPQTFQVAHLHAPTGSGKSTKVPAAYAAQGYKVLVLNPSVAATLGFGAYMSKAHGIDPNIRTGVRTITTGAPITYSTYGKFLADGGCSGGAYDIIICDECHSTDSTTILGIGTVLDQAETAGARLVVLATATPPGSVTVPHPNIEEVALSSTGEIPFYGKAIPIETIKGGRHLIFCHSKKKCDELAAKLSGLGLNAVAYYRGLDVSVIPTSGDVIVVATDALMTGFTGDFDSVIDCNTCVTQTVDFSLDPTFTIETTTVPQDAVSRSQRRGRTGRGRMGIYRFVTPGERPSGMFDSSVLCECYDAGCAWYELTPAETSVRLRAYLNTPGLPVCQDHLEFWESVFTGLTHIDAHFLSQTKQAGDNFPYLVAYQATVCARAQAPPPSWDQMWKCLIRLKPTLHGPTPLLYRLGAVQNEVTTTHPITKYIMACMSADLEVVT
Method: The full-length NS3/4A enzyme was prepared in a storage buffer (50 mM HEPES, pH 7.6, 500 mM NaCl, 1 mM DTT, 0.2% Triton X-100, and 20% glycerol) and immobilized on a CM5 sensor chip using standard amine-coupling at 25°C with running buffer HBS-P (10 mM HEPES, 150 mM NaCl, 0.05% surfactant P-20, pH 7.4) using a Biacore T100 instrument. Flow channels 1 and 3 were activated by 1-ethyl-3-(3-dimethylaminopropyl) carbodiimide hydrocholoride (EDC)/N-hydroxy succinimide (NHS) mixture, and the activated surface was blocked by ethanolamine (pH 8.5) as controls. The NS3/4A enzyme was diluted in 10 mM sodium acetate (pH 5.0), and immobilized to flow channel 4 after sensor surface activation with EDC/NHS with a 7 min injection followed by ethanolamine blocking on unoccupied surface area. NS3/4A immobilization level was ∼8,500 response units (RU). An unrelated reference protein (92 kDa) was also immobilized to flow channel 2 as another control to be compared with NS3/4A (74.6 kDa). Fifteen initial hit compounds were prepared as 10 mM DMSO stock solutions. Compound solutions with a series of increasing concentrations (0–200 µM at 1.5-fold dilution) were applied to all four channels at a 10 µL/min flow rate at 25°C. Sensorgrams were analyzed using Biaevaluation software 2.0.3, and response unit difference (ΔRU) values at each concentration were measured during the equilibration phase. Data were either single referenced with a blank (enthanolamine) or double referenced with both blank and reference protein RU values. SigmaPlot 11.0 was used to fit the data to a single rectangular hyperbolic curve to determine KD values. The hyperbola function, y = ymax·x/(KD+x), was used to plot response units and corresponding concentration, where y is the response, ymax is the maximum response, and x is the compound concentration.

[2] = target: T2, full-length NS3/4A protease (genotype 1b) (Hepatitis C virus genotype 1b, UniProt Q9WMX2); experiment: biochemical; conditions: for IC50: purified full-length NS3/4A, genotype 1b wild-type, read-out: IC50 Full-length NS3/4A; for inhibitory activity (SAR, in words): preliminary SAR of compound 12 analogues; for inhibition at 50 µM: read-out: percent inhibition at 50 µM compound concentration
T2 construct: wild-type HCV NS3 (HCV polyprotein residues 1027–1657); His-tag (N); made in house
T2 sequence (Q9WMX2 1658-1711): as the sequence (Q9WMX2 1658-1711) above
T2 sequence (Q9WMX2 1027-1657): as the sequence (Q9WMX2 1027-1657) above
Method: All assays were done in duplicate in black 384-well plates (Matrix Technologies). […] 200 nL of 10 mM compound (50 µM final concentrations) were then added and incubated for 5 minutes. Enzyme reactions were initiated with 10 µL of substrate Ac-DE-Dap(QXL520)-EE-Abu-ψ-[COO]AS-C(5-FAMsp)-NH2 (Anaspec) (1 µM final concentration), incubated for 6 minutes, and quenched by 10 µL of 10% SDS as a stop solution. Fluorescence intensity was monitored with a POLARstar OPTIMA microplate reader (BMG LABTECH). Each plate contained a total of 32 positive and 32 negative controls.
A series of compound concentrations (0 to 200 µM final concentration at 2-fold serial dilution) in 100% DMSO were prepared in a 384-well plate. 20 µL of enzyme solution was distributed to wells, and 0.5 µL of varying concentration of compounds were added and incubated for 5 minutes. The enzyme reaction was initiated by adding 5 µL of the substrate, and its activity was continuously monitored for 6 minutes. The IC50 values were calculated by fitting with the Hill equation (1), with OriginPro 8.5 (OriginLab, Inc.) where y is percent inhibition, x is inhibitor concentration, n is the slope of the concentration–response curve (Hill slope), and Vmax is maximal inhibition from two to four independent assays. [drawing 1] (1)

Structure (SMILES): Cc1ccc(S(=O)(=O)Nc2ccccc2C(=O)Nc2nc3c(Br)cccc3s2)cc1 [Compound 15]
SPR binding pattern to NS3/4A [1]: lack of binding; also recorded: did not bind

IC50 [2]: 24.9 µM
Structure (SMILES): O=C(Cc1csc(NS(=O)(=O)c2ccccc2)n1)Nc1ccccc1 [Compound 16]

IC50 [2]: 23.5 µM
Structure (SMILES): Cc1cc(Br)ccc1NC(=O)Cc1csc(NS(=O)(=O)c2ccccc2)n1 [Compound 17]

Structure (SMILES): COc1ccc(S(=O)(=O)Nc2nc(CC(=O)Nc3ccc(Br)c(C)c3)cs2)cc1 [Compound 18]
inhibitory activity (SAR, in words) [2]: Moderate activity
IC50 [2]: 14.4 µM

Structure (SMILES): COc1ccc(S(=O)(=O)Nc2nc(CC(=O)Nc3ccc(Br)cc3C)cs2)cc1 [Compound 19]
inhibitory activity (SAR, in words) [2]: Moderate activity
IC50 [2]: 6.2 µM

Structure (SMILES): Cc1ccc(S(=O)(=O)Nc2nc(CC(=O)Nc3ccc(Br)cc3C)cs2)cc1 [Compound 20]
inhibitory activity (SAR, in words) [2]: complete activity loss
IC50 [2]: > 100 µM
inhibition at 50 µM [2]: 29.1%

Structure (SMILES): CCc1ccc(NC(=O)Cc2csc(NS(=O)(=O)c3ccc(C)cc3)n2)cc1 [Compound 21]
inhibitory activity (SAR, in words) [2]: complete activity loss
IC50 [2]: > 100 µM
inhibition at 50 µM [2]: 7.2%

Structure (SMILES): O=C(Cc1csc(NS(=O)(=O)c2ccccc2)n1)Nc1cccc(F)c1 [Compound 22]
IC50 [2]: > 100 µM
inhibition at 50 µM [2]: 41.7%

Structure (SMILES): O=C(Cc1csc(NS(=O)(=O)c2ccc(Cl)cc2)n1)Nc1cccc(F)c1 [Compound 23]
inhibitory activity (SAR, in words) [2]: Moderate activity
IC50 [2]: 24.2 µM

Structure (SMILES): Cc1cccc(NC(=O)Cc2csc(NS(=O)(=O)c3ccc(Cl)cc3)n2)c1 [Compound 24]
inhibitory activity (SAR, in words) [2]: Moderate activity
IC50 [2]: 21.8 µM

Structure (SMILES): Cc1ccc(NC(=O)Cc2csc(NS(=O)(=O)c3ccc(Cl)cc3)n2)cc1Cl [Compound 25]
IC50 [2]: > 100 µM
inhibition at 50 µM [2]: 29.2%

Structure (SMILES): Cc1ccc(S(=O)(=O)Nc2ccccc2C(=O)Nc2nc3c(C)ccc(C)c3s2)cc1 [Compound 26]
IC50 [2]: > 100 µM
inhibition at 50 µM [2]: 0%

Structure (SMILES): Cc1ccc(S(=O)(=O)Nc2ccccc2C(=O)Nc2nc3c(Br)cccc3s2)cc1 [Compound 27]
inhibitory activity (SAR, in words) [2]: activity is regained
IC50 [2]: 15.6 µM
